In US20260131007A1, “Mannose 6-Phosphate Receptor Binding Compounds for the Degradation of Extracellular Proteins” (Avilar Therapeutics, Inc., priority 2023, published 2026):

Key:
[1] = target: T1, hIGF-IIR and IgG1 (ternary complex) (Homo sapiens, UniProt P01857+P11717); assay: HTRF-based ternary complex formation assay for hIGF-IIR targeting Extracellular Protein Degraders; assay type: binding
T1 construct: purchased R&D Systems 6418-GR
Description: The ternary complex formation assay is designed to identify and determine the potency of Extracellular Protein Degrader molecules which can induce the formation of ternary complex between the Extracellular Protein Degrader hIGF-IIR. Titrating Extracellular Protein Degrader to fixed amount of hIGF-IIR results in a bell-shaped curve (except molecules whose binary complex affinity between Extracellular Protein Degrader and hIGF-IIR). The peak mean represents Extracellular Protein Degrader concentration at which maximum ternary complex is formed. Too much or too little Extracellular Protein Degrader leads to decreased ternary complex formation due to formation of binary complex (Hook effect). Dose response of Extracellular Protein Degrader compounds (16-point 3-fold dilution series, 100X) were prepared by Echo Acoustic Liquid Handler (Beckman Coulter Life Sciences) using 384-well LDV microplate. Then 200 nL of the solutions were transferred to an OptiPlate 384-well microplate (PerkinElmer, 6007290). To the assay plate, 10 μL working solution containing 60 nM of Biotinylated-IgG1 (Viva 20211108) and 60 nM of His-tagged hIGF-IIR (R&D Systems, 6418-GR) in assay buffer 50 mM Tris, pH 7.5, 150 mM NaCl, 50 mM CaCl2, 0.01% Tween-20 were added. The plate was incubated for 60 min at room temperature with gentle shaking to allow molecular interaction to reach equilibration. Following this, 10 μL of HTRF detection solution containing 15 nM Streptavidin-d2 (PerkinElmer, 610SADLA) and 0.7 nM MAb Anti 6HIS—Tb cryptate (PerkinElmer, 61HISTLA) in PPI Terbium detection buffer (PerkinElmer, 61DB10RDF) were added. The assay plate was incubated at room temperature with gentle shaking for 60 min to allow HTRF signal to develop. The plate was gently spun on a centrifuge then placed on an EnVision plate reader (Perkin Elmer, EnVision 2104) to read fluorescence ratio of 665 nm/615 nm. Data were analyzed by fitting with Bell-shaped non-linear regression model using GraphPad Prism (GraphPad Software, LLC; version 9.4.1). Mean fluorescence intensity is graphed versus compound concentration and the EC50 for TCF is calculated from the inflection point of the curve (GraphPad).

[2] = test system: IgG; assay: Uptake and degradation in K562 cells (Western blot); assay type: cell-based, human; settings: K562 cells treated with compound and IgG; FIG. 14-17
Experimental: On day one, cells were harvested, counted, and seeded 1 million/well in 6 well plates for each cell line. On day two, cells were treated with compounds and IgG (Sigma, Cat #14506 dissolved in medium). Treated cells were washed three times with PBS, followed by addition of 200 μL of RIPA buffer (+HALT protease and phosphatase inhibitors) per well. Lysates were left on ice for 5 minutes then were collected into microcentrifuge tubes using a cell scraper. Lysates were then kept on a shaker for 30-60 minutes at 4° C. followed by centrifugation at 14,000 rpm at 4° C. for 15 minutes. Then, supernatants were transferred to fresh tubes and total protein concentration of each sample was determined using Pierce BCA kit. Next, 25 ug total protein of each sample was resolved on a 4-20% gels and transferred to PVDF membranes. Membranes were blocked in TBST+5% milk (made fresh) for one hour while shaking at room temperature. Then, the first antibody was added in TBST+5% milk at 4° C. overnight: a) Rabbit anti-human IgG, Abcam; Cat #ab181236-1:1000, b) anti-β-actin, Cell signaling Tech, Cat #3700S)-1:3000. On the next day, membranes were washed with TBST 10 minutes each for three times. Later, the second antibody was added in TBST+5% milk at room temperature over one hour: a) IRDye 800CW Goat anti Rabbit IgG, Licor, Cat #926-32211)-1:10,000; b) IRDye 680RD Goat anti Mouse IgG (Licor Cat #926-68078)-1:10,000. Then, membranes were washed with TBST 10 minutes each for three times. The results were detected by Licor. Data from the uptake and degradation assay is shown in FIG. 14, FIG. 15, FIG. 16, and FIG. 17.

[3] = test system: K562 cells; assay: Ternary complex formation (TCF) in K562 cells, flow cytometry with AF488-labeled human IgG; assay type: cell-based; settings: AF488-labeled human IgG 300 nM, 4° C., 1 hour
Experimental: K562 cells were seeded in 96-well assay plate using K562 cell medium, then compounds and AF488-labeled human IgG (final concentration of 300 nM) were added at 4° C. and incubated for 1 hour. Afterwards, the cells were washed once with 1×PBS+0.1% BSA (Cold) and centrifuged at 1000 rpm for 5 minutes. Next, cells were re-suspended in 150 μL 1×PBS+0.1% BSA and ran flow cytometry on iQue® Screener PLUS.

[4] = test system: human IgG (hIgG); assay: DMPK study: degradation of coadministered human IgG in rats; assay type: in vivo; settings: male SD rats, IgG 200 mg/kg IV, compound IV an hour later; FIG. 11, FIG. 12
Experimental: The dose formulation of IgG at 200 mg/kg was administered via IV injection to male SD rats, and Compound 5 was administered via IV injection an hour later (after IgG dosing). About 0.2 mL of blood was collected via jugular vein at each time point and was transferred into pre-cooled low binding EP tubes containing 4 μL of K2-EDTA (0.5 M) as anti-coagulant placed on wet ice. After blood was collected, the samples were processed for plasma by centrifugation at approximately 4° C., 3200 g for 10 minutes, the plasma was obtained within 30 minutes of blood collection. Then the plasma was transferred to two clean low binding EP tubes (50 μL each, one for PK, one for PD) and quickly frozen over dry ice and kept below −60° C. or lower for LC-MS/MS analysis. Plasma concentration versus time data was plotted in graph and analyzed by non-compartmental approaches using the Phoenix WinNonlin 6.3 software program. Related PK parameters were calculated according to dosing route, e.g. CL, Vdss and C0 for intravenous administration, Cmax, Tmax or % F for extravascular administration, and T1/2, AUC(0-1), AUC(0-inf), MRT(0-1), MRT(0-inf) for all routes. The quantification of human IgG concentration in animal plasma was conducted using human IgG ELISA kit. Plotted pharmacokinetic and pharmacodynamic data can be found in FIG. 10, FIG. 11, FIG. 12, and FIG. 13.

CC(C)C[C@@H]1NC(=O)[C@H](Cc2cnc[nH]2)NC(=O)[C@H](Cc2c[nH]c3ccccc23)NC(=O)[C@H](C)NC(=O)[C@@H]2CSSC[C@H](NC(=O)[C@H](Cc3c[nH]c4ccccc34)CC(=O)[C@H](C(C)C)NC(=O)[C@H](CC(C)C)NC(=O)[C@H](CCC(=O)O)NC(=O)CNC1=O)C(=O)N[C@@H]([C@@H](C)O)C(=O)N1CCC[C@@H]1C(=O)N1C[C@@H](NC(=O)COCCOCCOCC(=O)NC(COCCC(=O)NCCOCCn3cc(CCO[C@H]4O[C@H](CCP(=O)(O)O)[C@@H](O)[C@H](O)[C@@H]4O)nn3)(COCCC(=O)NCCOCCn3cc(CCO[C@H]4O[C@H](CCP(=O)(O)O)[C@@H](O)[C@H](O)[C@@H]4O)nn3)COCCC(=O)NCCOCCn3cc(CCO[C@H]4O[C@H](CCP(=O)(O)O)[C@@H](O)[C@H](O)[C@@H]4O)nn3)C[C@H]1C(=O)N[C@@H](CC(=O)O)C(=O)N2 [Compound 5]
EC50 [1]: < 0.05 µM | degradation of IgG (gel electrophoresis image) [2]: degradation of IgG | EC50 [3]: 0.05 to 0.25 µM | degradation of coadministered human IgG (percent of initial hIgG over time) [4]: degradation of coadministered human IgG
